Data set [1] deals with naive rats (Wistar). The experiment in a line: Pre-pulse inhibition (PPI) test, sensory filtering. It counts as in vivo, rat. The settings on record: for Percentage of pre-pulse inhibition, Average: average over first pulse intensities; for effect on PPI (schizophrenia-inducing effect): memantine 10 mg/kg (p<0.01), FENM even at high dose (20 mg/kg). The text has this: • Pre-pulse inhibition (PPI) test: One of the major problems of treatments targeting the central nervous system remains the achievement of the desired effect without the appearance of crippling psychological side effects, even exceeding the therapeutic benefit of the treatment. These effects are often significant (the rebound effect of benzodiazepines) or even paradoxical (the anxiety-producing effect of short-term serotonin reuptake inhibitors). In particular, they can induce a destabilization of sensory filtering and generate symptoms similar to schizophrenia.
Pre-impulse inhibition testing is based on the brain's ability to adapt to a moderate-intensity stimulus in order to limit the effect of the same high-intensity stimulus. In this test, the animals are placed in a soundproof cage and subjected either to a sound pulse of 120 decibels (dB) or to a sequence of 2 pulses spaced about 100 milliseconds apart, the second pulse being of fixed intensity of 120 dB and the first of variable intensity between 70 and 85 dB).
In animals with psychotic disorders of a schizophrenic nature, this inhibition is more or less eliminated.
(§1) In the following examples, the effects of memantine, propranolol and fluoroethylnormemantine (FENM, the subject of the present invention) are studied in naive rats (Wistar) subjected to various tests related to depression or anxiety and then compared.
(§2) The test substances are administered to rats intraperitoneally in a volume of 5 ml/kg, 30 minutes before the behavioral tests are performed.
(§3) The injected solutions contain either of the molecules in the form of one of their salts, a hydrochloride (memantine·HCl and FENM·HCl) for the nitrogen derivatives and as such for propranolol, at the concentrations indicated below in a mixture of 95% (NaCl 0.9% ww in water)/5% ethanol. In each experiment, the dose per kilogram is referenced.
Pre-impulse inhibition testing is based on the brain's ability to adapt to a moderate-intensity stimulus in order to limit the effect of the same high-intensity stimulus. In this test, the animals (12 per group) are placed in a soundproof cage and subjected either to a sound pulse of 120 decibels (dB) or to a sequence of 2 pulses spaced about 100 milliseconds apart, the second pulse being of a fixed intensity of 120 dB and the first of variable intensity between 70 and 85 dB).

In data set [2] the test system is naive rats (Wistar). The experiment in a line: Forced swimming test. It counts as in vivo, rat. As to conditions: for Rat behavior over the period of time 1 to 6 minutes: frenetic movement / Rat behavior over the period of time 1 to 6 minutes: immobility (ies): second day, 30 min before; for Rat behavior over the period of time 1 to 6 minutes: immobility (ies): in s; for immobility time compared with control: all dose levels, particularly 10 mg/kg, p<0.001. As for the experimental part:
• the forced swimming test: This test has been used for a number of years with rats or mice to test the activity of antidepressants (F. Borsini, Psychopharmacology (1988) 94:147-160) and consists of placing the animal in a bowl filled with room-temperature water. After 15 minutes (pre-test session), the animal is taken out of the water and dried. Twenty-four hours later, the animal is again exposed to the previous conditions and the time of total immobility for a period of 5 minutes is recorded (test session). The animal is considered immobile when it performs only the movements necessary to keep its head out of the water. This immobility is easier to assess in rats than in mice, which have less explicit movements.
as §1, §2, §3
In the forced swimming test, rats (12 per group) are forced to swim in a tank filled with 23° C. water (10 minutes on the first day to allow for habituation to the medium and 6 minutes on the second day).
The behavior of the rats (stopping swimming, decreasing activity) is quantified by a video monitoring system.
The therapeutic solutions to be tested are administered on the second day 30 minutes before the experiment.

For data set [3], the system named is naive rats (Wistar). The experiment in a line: Fear conditioning + extinction + stabilization (PTSD model). It is filed as in vivo, rat.
Text: Several animal models have been developed to mimic the traumatic events that induce intense and recurrent fear symptoms characteristic of PTSD. • Pavlovian fear conditioning of the animals: This animal model consists of Pavlovian-type fear conditioning (Zovkic, Neuropsychopharmacology Reviews (2013) 38, 77-93): mice (or rats) are trained to associate exposure to danger (electric shock, etc.) with the presence of a specific cue or environment (sound cue for example). The memory of this association (danger-cue) is later tested by measuring tetany behavior (through fear) when the animal is re-exposed to the conditioning cue in the absence of real danger.
Again, the occurrence of symptoms of PTSD are assessed after a certain period of time, without exposure to the hazard, to simulate the long-term onset of PTSD pathology. • Fear extinction: After a fear conditioning as described above it can be of interest to apply a protocol to extinguish this fear. Classically, this phase is placed 24 hours after the conditioning phase.
The extinction protocols model the relearning of the normal (non-fear-motivated) response to the cue (sound) and are very useful in modeling PTSD. • Fear stabilization: It can be useful, to assess the performance of a treatment, to add a stabilization phase after the extinction phase, spaced 24 h apart. Typically, this phase puts the animals back under the extinction phase conditions. It then allows the detection of staggered performances of the treatments, but also of the resurgence of tetany (rebound effect).
as §1, §2, §3
The applicant used a fear conditioning test in which the clue (neutral conditional stimulus) is a sound, coupled with a danger (aversive unconditional stimulus) which is an electric shock delivered by the floor of the box. This conditioning is followed by a fear extinction phase with injection of the treatment solutions to be tested and then by a test phase itself. • Fear Conditioning Phase (FC): fear conditioning takes place in a standard conditioning box (context A, white box in Table 7) and the rats (8 per group) are subjected to 3 “sound-electroshock” pairs at times of 180 s, 381 s and 582 s after being placed in the box. Each sound lasts 20 s and each electroshock lasts 1 s with a current of 1 mA. • The fear extinction phase (Ext.) is conducted as follows: the rats are placed in a box similar to the one that will be used for the final test (context B, pink box in Table 7), for a 25-minute session. During this session, 24 presentations are made with the same sound as that used during the conditioning session (20 s each, 35 s apart). Of course, no electric shock is delivered, and the percentage of time of tetany (“freezing”) during the phase is recorded. • Stabilization phase: the day after the extinction phase, 30 minutes before the test phase, […] of 3 sounds (same sequence as used for conditioning), recording the percentage of time they remain still during this test phase. […]

The next data set concerns the target NMDA receptor. Nature of the data set: Affinity with the NMDA receptor. It is filed as binding. The settings on record: compared with memantine.
The mark [4] stands for this setting: 10 mg/kg i.p., first pulse 72 dB.
Setting [5] is: 10 mg/kg i.p., first pulse 76 dB.
Setting [6] is: 10 mg/kg i.p., first pulse 80 dB.
Where [7] appears, read: 10 mg/kg i.p., first pulse 84 dB.

With `CC12CC3CC(C)(C1)CC(N)(C3)C2` [Memantine, memantine], the “Percentage of pre-pulse inhibition, Average” value with naive rats (Wistar) [1] (10 mg/kg i.p.) came out at 31%. For the same molecule, the “Percentage of pre-pulse inhibition as a function of the intensity of the first pulse” value in the data set on naive rats (Wistar) [1] (setting [4]) came to 19%; with naive rats (Wistar) [1] (setting [5]), 24%; with naive rats (Wistar) [1] (setting [6]), 36%; in the data set on naive rats (Wistar) [1] (setting [7]), 44%. In addition, the “effect on PPI (schizophrenia-inducing effect)” value with naive rats (Wistar) [1] is “induces an inhibition of the PPI effect”. Also, the “Rat behavior over the period of time 1 to 6 minutes: frenetic movement” value is 55.1 s in the data set with naive rats (Wistar) [2] (1 mg/kg i.p.), 48.7 s in the data set on naive rats (Wistar) [2] (3 mg/kg i.p.) and 67.2 s in the data set on naive rats (Wistar) [2] (10 mg/kg i.p.). For the same molecule, the figures for the “Rat behavior over the period of time 1 to 6 minutes: immobility (ies)” value in the data set with naive rats (Wistar) [2] (1 mg/kg i.p.), in the data set on naive rats (Wistar) [2] (3 mg/kg i.p.) and with naive rats (Wistar) [2] (10 mg/kg i.p.) were 139.8, 145.7 and 119.7, respectively. Further, the “immobility time compared with control” value with naive rats (Wistar) [2] is “very significant (p<0.001) decrease”. The “rebound effect (increased tetany) compared with control during the stabilization phase” value in the data set on naive rats (Wistar) [3] (10 mg/kg administered during the extinction phase) is recorded as “+25%”.
For the molecule `NC12CC3CC(C1)CC(CCF)(C3)C2`, the “Percentage of pre-pulse inhibition, Average” value in the data set on naive rats (Wistar) [1] (5 mg/kg i.p.) is 42%; in the data set with naive rats (Wistar) [1] (10 mg/kg i.p.) it was 45%; in the data set on naive rats (Wistar) [1] (20 mg/kg i.p.) it was 48%. For the same molecule, the “Percentage of pre-pulse inhibition as a function of the intensity of the first pulse” value was 24% in the data set on naive rats (Wistar) [1] (5 mg/kg i.p., first pulse 72 dB); 37% with naive rats (Wistar) [1] (5 mg/kg i.p., first pulse 76 dB); 47% with naive rats (Wistar) [1] (5 mg/kg i.p., first pulse 80 dB); 60% with naive rats (Wistar) [1] (5 mg/kg i.p., first pulse 84 dB); 27% in the data set with naive rats (Wistar) [1] (setting [4]); 39% in the data set on naive rats (Wistar) [1] (setting [5]). Also, the “Percentage of pre-pulse inhibition as a function of the intensity of the first pulse” value in the data set on naive rats (Wistar) [1] (setting [6]) is 51%; with naive rats (Wistar) [1] (setting [7]), 64%; in the data set on naive rats (Wistar) [1] (20 mg/kg i.p., first pulse 72 dB), 31%; in the data set on naive rats (Wistar) [1] (20 mg/kg i.p., first pulse 76 dB) it was 46%; in the data set with naive rats (Wistar) [1] (20 mg/kg i.p., first pulse 80 dB) it was 54%; in the data set on naive rats (Wistar) [1] (20 mg/kg i.p., first pulse 84 dB), 62%. Further, in the data set on naive rats (Wistar) [1], the “effect on PPI (schizophrenia-inducing effect)” value is recorded as “induces no effect”. Also, the “Rat behavior over the period of time 1 to 6 minutes: frenetic movement” value in the data set with naive rats (Wistar) [2] (1 mg/kg i.p.) is 43.2 s; in the data set with naive rats (Wistar) [2] (3 mg/kg i.p.) it was 47.6 s; in the data set on naive rats (Wistar) [2] (10 mg/kg i.p.), 60.6 s. The “Rat behavior over the period of time 1 to 6 minutes: immobility (ies)” value with naive rats (Wistar) [2] (1 mg/kg i.p.) is on record as 157.8; in the data set with naive rats (Wistar) [2] (3 mg/kg i.p.), 164.3; in the data set with naive rats (Wistar) [2] (10 mg/kg i.p.), 140.5. Moreover, the “immobility time compared with control” value in the data set with naive rats (Wistar) [2] was “very significant (p<0.001) decrease”. The “Percentage of time of tetany (freezing) during the stabilization phase” value came to 21% in the data set on naive rats (Wistar) [3] (5 mg/kg, Early treatment: one injection 30 minutes before the extinction phase); 26% in the data set on naive rats (Wistar) [3] (5 mg/kg, Late treatment: one injection 30 minutes before the stabilization phase); 23% in the data set on naive rats (Wistar) [3] (5 mg/kg, Protective effect: one injection 30 minutes before the conditioning phase); 25% in the data set on naive rats (Wistar) [3] (10 mg/kg, Early treatment: one injection 30 minutes before the extinction phase); 4% with naive rats (Wistar) [3] (10 mg/kg, Late treatment: one injection 30 minutes before the stabilization phase); 6% in the data set on naive rats (Wistar) [3] (10 mg/kg, Protective effect: one injection 30 minutes before the conditioning phase). Further, the “Percentage of time of tetany (freezing) during the stabilization phase” value in the data set on naive rats (Wistar) [3] (20 mg/kg, Early treatment: one injection 30 minutes before the extinction phase) is listed as 6%; with naive rats (Wistar) [3] (20 mg/kg, Late treatment: one injection 30 minutes before the stabilization phase) it was 2%; in the data set with naive rats (Wistar) [3] (20 mg/kg, Protective effect: one injection 30 minutes before the conditioning phase), 2%. For the same molecule, the “tetany in the stabilization phase compared with control” value with naive rats (Wistar) [3] (administered at conditioning, early or late post-traumatic treatment) is recorded as “virtually eliminate”. The “affinity with the NMDA receptor (measured in Ki)” value at NMDA receptor is given as “same order of magnitude as that of memantine”.

(Values after US11464751B2, “Use of fluoroethylnormemantine for the prevention and treatment of anxiety” (REST THERAPEUTICS, priority 2017, dated 2022).)
